e = 2'-O-(2-methoxyethyl) (MOE); d = 2'-deoxy (DNA)
Tests used:
[1] = tested on: BALB/c mice; assay: Tolerability in BALB/c mice: liver, kidney and spleen weights (Example 8); assay type: in vivo, mouse
Experimental: The mice were sacrificed 2 days after the last administration and liver, spleen and kidney weights were measured. Plasma transaminase levels were also evaluated.
The weights of liver, kidney and spleen of the mice were measured after 4 weeks and liver weights are presented in Table 10 as a percentage change compared to the corresponding weights in the PBS control. The percentage changes in kidney and spleen weight in the treated mice compared to the PBS control were negligible and are not shown.

[2] = tested on: BALB/c mice; assay: Tolerability in BALB/c mice: plasma transaminases ALT and AST (Example 7); settings: for aspartate transaminase levels: plasma
Experimental: These gapmer oligonucleotides were designed to target human TGF-beta1 and have varying degrees of mismatch with murine TGF-beta1 sequence, as shown in Table 1. Oligo ID Nos. 413982 and 414040 have greater than 3 mismatches to the murine TGF-beta1 sequence. Oligo ID No. 414035 has 2 mismatches to murine TGF-beta1. Oligo ID No. 414036 has no mismatches to murine TGF-beta1.
BALB/c mice were injected with 25 mg/kg or 50 mg/kg of Oligo ID Nos. 413982, 414035, 414036, or 414040 twice a week for 4 weeks. A control group of mice was injected with phosphate buffered saline (PBS) twice a week for 4 weeks. Plasma transaminase levels were evaluated bi-weekly.
To evaluate the impact of TGF-beta1 antisense oligonucleotides on the hepatic function of mice described above, plasma concentrations of transaminases were measured using an automated clinical chemistry analyzer (Hitachi Olympus AU400e, Melville, N.Y.).

“414036 (antisense GTGTCCTTAAATACAGCCCC; sugars from the 5' end e2 d13 e5, backbone and methylation of C not given here) [compound 414036]” was tested, and the “Liver % Weight change relative to PBS control” value ([1]; 25 mg/kg twice a week for 4 weeks) was “+17%”, the “Liver % Weight change relative to PBS control” value ([1]; 50 mg/kg twice a week for 4 weeks) was “+35%” and the “increase in liver weight” value ([1]; 25 or 50 mg/kg twice a week for 4 weeks, vs PBS control) was at most 35%. For the same substance, the alanine transaminase levels ([2]; 25 mg/kg twice a week, Week 2) was 70 IU/L, the alanine transaminase levels ([2]; 25 mg/kg twice a week, Week 4) was 61 IU/L and the aspartate transaminase levels ([2]; 25 mg/kg twice a week, Week 2) was 119 IU/L. It also gave an aspartate transaminase levels ([2]; 25 mg/kg twice a week, Week 4) of 148 IU/L, an alanine transaminase levels ([2]; 50 mg/kg twice a week, Week 2) of 99 IU/L and an alanine transaminase levels ([2]; 50 mg/kg twice a week, Week 4) of 190 IU/L. For the same substance, the aspartate transaminase levels ([2]; 50 mg/kg twice a week, Week 2) was 183 IU/L, the aspartate transaminase levels ([2]; 50 mg/kg twice a week, Week 4) was 467 IU/L and the “increase in ALT/AST” value ([2]; 25 or 50 mg/kg twice a week for four weeks) was under 8 fold.

Reference: patent US20110172296A1, “MODULATION OF TRANSFORMING GROWTH FACTOR-BETA 1 EXPRESSION” (priority 2010, published 2011)
